Values quoted from earlier work, collected in patent US20050250804A1, “Pharmaceutical gel formulations” (Glenmark Pharmaceuticals Limited, priority 2004, published 2005).

Key:
[1] = system: Interleukin-2, interferon gamma, Interleukin-4 and Interleukin-10 cytokine synthesis in human T cells
human subjects = conditions: repeated insult patch test, 50 human subjects, total of 15 applications; manufacturer's brochure

PII (rabbit skin) | Structure (SMILES) | concentration inhibiting IL-2, interferon gamma (Th1-type), IL-4 and IL-10 (Th2-type) cytokine synthesis [1] | primary dermal irritation / sensitization (human subjects) | skin irritation (rabbit skin)
– | CC[C@@H]1/C=C(\C)C[C@H](C)C[C@H](OC)[C@H]2O[C@@](O)(C(=O)C(=O)N3CCCC[C@H]3C(=O)O[C@H](/C(C)=C/[C@@H]3CC[C@H](Cl)[C@H](OC)C3)[C@H](C)[C@@H](O)CC1=O)[C@H](C)C[C@@H]2OC [pimecrolimus, (1R,9S,12S,13R,14S,17R,18E,21 S,23S,24R,25S,27R)-12-[(1E)-2-{(1R,3R,4S)-4-chloro-3-methoxycyclohexyl}-1-methylvinyl]-17-ethyl-1,14-dihydroxy-23,25-dimethoxy-13,19,21,27-tetramethyl-11,28-dioxa-4-aza-tricyclo[22.3.1.04,9]octacos-18-ene-2,3,10,16-tetraone] | nanomolar concentrations | – | –
0.5 | CN1CCCC1=O [Pharmasolve®, N-methyl-2-pyrrolidone] | – | neither a primary dermal irritant nor a sensitizer | practically nonirritating
